# Results published in patent US20250011296A1, “MODULATORS OF MOLECULAR TARGETS EXPRESSED IN METABOLIC AND INFLAMMATORY DISORDERS” (Ohio State Innovation Foundation, priority 2021, published 2025).
# “Also recorded” adds a separate entry of the source.
# Legend:
# [1] = tested on: HbA1C (glycated hemoglobin) expression; assay: Larval diabetic zebrafish assay, Western blot of HbA1C; type: in vivo; details: diabetic zebrafish larvae, 10 μM
# Description: Following isolation, derivatization, and analysis of compounds 41-48 through the in vitro panel of assays, the mace natural products and licarin A derivatives were investigated in the larval diabetic zebrafish assay for potential antidiabetic activity. Western blot analysis of zebrafish expression levels for glycated hemoglobin, metabolic enzymes, and molecular targets NFκB and PPAR-γ was performed to evaluate potential lead improvement and to discover possible mechanisms of action.
# (§1) Wild-type zebrafish were sorted into 24-well microplates with 10 fish per well for a four-phase treatment cycle. At 72 hpf, type 2 diabetes was induced by administering 0.5 mg/mL alloxan in fish water for percutaneous absorption. After three hours of alloxan treatment, phase two of the treatment cycle was initiated by administering 10 μM doses of natural product compounds 41-43 (FIG. 4) or derivatives 45-48 (FIG. 6) with 0.01% DMSO in system water. At 78 hpf, the incubation solution was changed to 10 mg/ml D-glucose for 30 minutes, followed by a phase-four rinse in fresh system w Following the four-phase treatment cycle, zebrafish treatment groups were snap frozen in microcentrifuge tubes on dry ice, stored overnight at −80° C., thawed, and homogenized with 2 μL PBS per animal. Following centrifugation (60 minutes at 4° C. and 17,000 rpm), protein content of the homogenate supernatant was determined using the Pierce BCA Protein Assay kit (Pierce Biotechnology). Homogenates were analyzed by Western blot with equal amounts of total protein (20 μg) in each sample and using 4×LDS loading buffer (NuPAGE Life Technologies). The immunoblot samples were heated at 95° C. for 5 minutes and loaded onto NuPAGE Bis-Tris 4-12% gradient SDS-PAGE gels.
# (§2) Electrophoresis was performed with NuPAGE MES SDS Running Buffer and using the XCell SureLock Mini-Cell Electrophoresis System (Life Technologies). Proteins separated on the gel were transferred to a PVDF membrane using TBST buffer. The blots were blocked in 3% BSA in TBST and subsequently probed overnight with primary antibodies (1:1000 in 1% BSA in TBST) against each target of interest. Following TBST rinses, secondary HRP-conjugated antibodies (1:2000) were applied to the membrane for 60 minutes. The HRP conjugated antibodies were detected using SuperSignal West Femto chemiluminescent substrate (Pierce Biotechnology) and immunoblot images were captured using the luminometer and Lumi Analyst 3.0 software.
# (§3) Band densities were determined using ImageJ Gel Analysis to determine expression levels of each protein of interest. Expression levels of HbA1C, PPAR-γ, and NFκB were organized into a bar graphs (FIG. 5) with band densities calculated in comparison to the housekeeping gene β-actin, normalized to the untreated diabetic group (B) of zebrafish. […].
# [2] = tested on: PPAR-γ expression; assay: Larval diabetic zebrafish assay, Western blot of PPAR-γ; type: in vivo; details: diabetic zebrafish larvae, 10 μM
# Description: Western blot analysis of zebrafish expression levels for glycated hemoglobin, metabolic enzymes, and molecular targets NFκB and PPAR-γ was performed to evaluate potential lead improvement and to discover possible mechanisms of action.
# as §1, with “After three hours of alloxan treatment, phase two of the treatment cycle was initiated by administering 10 μM doses of natural product compounds 41-43 (FIG. 4) or derivatives 45-48 (FIG. 6) with 0.01% DMSO in system water.” left out, “Technologies).” for “Technologies). The immunoblot samples were heated at 95° C. for 5 minutes and loaded onto NuPAGE Bis-Tris 4-12% gradient SDS-PAGE gels.”
# as §2, §3
# [3] = biological target: T1, PPAR-γ (Homo sapiens, UniProt P37231); assay: PPAR-γ ELISA assay (PPAR-α,γ,δ Complete Transcription Factor Assay Kit; CCD-112CoN or Hela cells, nuclear extracts); type: cell-based
# T1 construct: endogenous in cells; host or cells: CCD-112CoN normal colon cells or HeLa cells (ATCC), nuclear extract
# T1 sequence (P37231 1-505): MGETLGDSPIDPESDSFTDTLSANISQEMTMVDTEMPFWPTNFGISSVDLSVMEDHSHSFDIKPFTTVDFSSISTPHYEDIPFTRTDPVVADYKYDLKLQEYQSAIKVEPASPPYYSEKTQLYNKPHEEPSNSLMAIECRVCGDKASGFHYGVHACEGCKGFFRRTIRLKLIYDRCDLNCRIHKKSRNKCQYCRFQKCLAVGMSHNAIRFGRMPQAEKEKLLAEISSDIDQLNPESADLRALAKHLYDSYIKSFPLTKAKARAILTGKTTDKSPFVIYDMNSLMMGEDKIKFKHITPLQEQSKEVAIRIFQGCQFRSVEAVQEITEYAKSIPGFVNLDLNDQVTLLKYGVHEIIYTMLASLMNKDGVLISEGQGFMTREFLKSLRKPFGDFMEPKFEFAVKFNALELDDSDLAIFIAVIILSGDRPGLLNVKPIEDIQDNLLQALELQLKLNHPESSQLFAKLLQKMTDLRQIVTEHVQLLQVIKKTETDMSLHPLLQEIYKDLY
# Description: To evaluate the ability of natural product extracts and compounds to induce specific binding of PPAR-γ transcription factor in nuclear extracts to immunosorbed peroxisome proliferator response element, the PPAR-α,γ,δ Complete Transcription Factor Assay Kit (Cayman Chemical Company) was used according to the kit protocol. 303 CCD-112CoN normal colon cells or Hela cells (ATCC) were treated with mace extracts or isolated compounds for 24 h, nuclear extracts were harvested using the NE-PER kit (Pierce Biotechnology), and protein content equilibrated using the Pierce BCA Protein Assay kit (Pierce Biotechnology). Specific binding was detected through quantification of absorptivity at 630 nm in a BioTek uQuant microplate reader (BioTek Instruments, Inc.). […] Licarin A derivatives 45-48 were screened through the panel of in vitro assays to evaluate their potential as antidiabetic compound leads. […] Methods for the assay were as described above.
# [4] = preliminary Western blot (FIG. 5), not in replicate
# [5] = preliminary Western blot (FIG. 4/5)
SMILES,"HbA1C expression (band density) [1, 4]","PPAR-γ expression (band density) [2, 5]","PPAR-γ % activation ([3]; Table 14, isolates at 50 μg/mL)","PPAR-γ % activation ([3]; Table 20 summary, 50 μg/mL)",HbA1C expression (band density) ([1]; duplicate Western blot (FIG. 7)),PPAR-γ expression (band density) ([2]; duplicate Western blot (FIG. 8)),"PPAR-γ activity, % as active/effective as positive control rosiglitazone ([3]; 50 μg/mL)","PPAR-γ activity in vitro ([3]; preliminary screening, 50 μg/mL)"
"C/C=C/c1cc(OC)c2c(c1)[C@H](C)[C@@H](c1ccc3c(c1)OCO3)O2 [Compound 41, licarin B]",HbA1C levels even lower than those treated with the thiazolidinedione rosiglitazone; also recorded: excellent hypoglycemic effect,did not upregulate PPAR-γ expression,45%,45%,–,–,–,–
"C/C=C/c1cc(OC)c2c(c1)[C@H](C)[C@@H](c1ccc(O)c(OC)c1)O2 [Compound 42, licarin A]",least effective of the three natural products at reducing HbA1C expression,greater PPAR-γ expression that 41,81%,81%,most effective test samples for decreasing HbA1C,reliably intermediate between the rosiglitazone-treated and untreated diabetic groups,81%,moderate PPAR-Y activity
